Data: publication PMC3493468 (Chembiochem : a European journal of chemical biology, 2011)
Peptide text beside a SMILES is read from it. * marks the point of attachment. Palmitoyl = CCCCCCCCCCCCCCCC(=O)*

Tests used:
[1] = Biodistribution of 3H-labeled lipopeptide; assay type: in vivo, mice; conditions: subcutaneous, topical, peritoneal or oral administration; Supplementary Figure S6
SMO [2] = conditions: cited from earlier work
SMO [3] = assay: Inhibition of SMO function / Hedgehog pathway; assay type: cell-based
[4] = tested on: IGF-1 induced activity of AKT; assay: IGF-1-induced AKT activation; assay type: cell-based; conditions: MCF-7 cells, compound 1 hour, then IGF-1 25 ng/ml for 20 min; Figure 5

For “Ac-AKFSTHWAYTLK-(ε-Pal), all-D [SMOi2-17]”, the entry into circulation [1] is listed as “did not enter the circulation” and the “in vitro activity as inhibitor of the Hedgehog pathway” value (SMO [2]) is listed as “subnanomolar range”.

In the case of Ac-LTYAWHTSFKAL-NH2 [SMOi2-9], the “inhibition of SMO function” value (SMO [3]) is reported as “inactive”.

In the case of Ac-(ε-Pal)-KLTYAWHTSFKAL-NH2 [SMOi2-43], the “in vitro activity as inhibitor of the Hedgehog pathway” value (SMO [2]) is listed as “potent inhibitor”.

With `CCCCCCCCCCCCCCCC(=O)N[C@@H](CCCNC(=N)N)C(=O)N[C@@H](CC(N)=O)C(=O)N[C@@H](CC(N)=O)C(=O)N[C@@H](CO)C(=O)N[C@@H](CCCNC(=N)N)C(=O)N[C@@H](CC(C)C)C(=O)NCC(=O)N[C@@H](CC(N)=O)C(=O)NCC(=O)N[C@H](C(=O)N[C@@H](CC(C)C)C(=O)N[C@@H](Cc1ccc(O)cc1)C(N)=O)C(C)C` [Peptide 16] (Palmitoyl-RNNSRLGNGVLY-NH2) the “inhibition of IGF-1 induced activity of AKT” value [4] was “inhibited IGF-1 induced activity of AKT in a dose-dependent manner”.
